From patent US7629156B2, “Ethanol production in fermentation of mixed sugars containing xylose” (E.I. du Pont de Nemours and Company, priority 2006, dated 2009)

How the values were obtained:
Type in all cases: cell-based, Zymomonas mobilis
ZW658 strain [1] = assay: Tube fermentation of ZW658 on glucose and xylose with various sugar alcohols (Example 14); details: for ethanol production / xylose utilization: 10 mM sugar alcohol vs control; for OD600: after 48 hours, 10 mM sugar alcohol, 92 g/L glucose, 82 g/L xylose
Method: (§1) Approximately 1 ml of well mixed sample was obtained from flask or fermentor. First the sample absorbance was measured directly with a spectrophotometer (Amersham Biosciences Ultrospec 3300pro, GE Healthcare, Piscataway, N.J., USA). If the reading was lower than 0.6 unit, no dilution was needed. If the reading was higher than 0.6 unit, the sample was diluted with culture medium until the actual reading was in the range of 0.1 to 0.6 unit. The original OD was calculated from the dilution ratio and the actual reading.
(§2) The analysis of sugars, acetate, ethanol, and other by-products was done with an Agilent 1100 series HPLC and Agilent ChemStation software for LC 3D. The column was BioRad Aminex HPX-87H(HPLC Organic Analysis Column 125-0140) with BioRad Micro-Guard Cartridge Cation-H (125-0129). The operating conditions were:
In six sterilized 50 ml screw-cap centrifuge tubes (Cat. No. 21008-178, VWR International, USA), 200 μl of ZW658 strain glycerol stock at OD600 of approximately 10 was inoculated into each flask with 25 ml of aqueous solution containing 92 g/L glucose, 82 g/L xylose, 10 g/L yeast extract (YE), 2 g/L KH2PO4, 1 g/L MgSO4.7H2O, and 10 mM of D-sorbitol, L-sorbitol, D-threitol, myo-inositol, or xylitol. The control had no addition of sugar alcohol. Initial pH was adjusted to 5.5 with 4 N H3PO4 solution. Fermentation was conducted at 33° C. and pH was not controlled. Samples were taken periodically between 0 and 48 hr. Samples were filtered through 0.22 micron filters, and the filtrates were analyzed by HPLC as described in General Methods for glucose, xylose, xylitol, and ethanol. Samples were diluted with medium (as described in General Methods) and the OD600 was measured to monitor cell growth. Results of growth and glucose utilization are given in FIGS. 22A and 22B, respectively. Results of xylose utilization and ethanol production are given in FIGS. 23A and 23B, respectively. Cultures with D-sorbitol or L-sorbitol grew faster and better than the control. After 48 hours, the OD600 were 6.2 and 5.2, respectively, for cultures supplemented with D-sorbitol or L-sorbitol; while the OD600 were less than 1 for other cultures. […] The presence of D-sorbitol or L-sorbitol allowed more xylose utilization, without production of xylitol.

ZW658 strain [2] = assay: Tube fermentation of ZW658 on glucose and xylose with various sugar alcohols (Example 13); details: for ethanol production / xylose utilization: sugar alcohol in the medium vs control
Method: as §1, §2
In eight sterilized 50 ml screw-cap centrifuge tubes (Cat. No. 21008-178, VWR International, USA), 200 μl of ZW658 strain glycerol stock at OD600 of approximately 10 was inoculated into each flask with 25 ml of aqueous solution containing 92 g/L glucose, 82 g/L xylose, 10 g/L yeast extract (YE), 2 g/L KH2PO4, 1 g/L MgSO4.7H2O, and either 10 mM of sorbitol, arabitol, adonitol (also called ribitol), or galactitol; or 50 mM of arabitol, adonitol, or galactitol. The control had no sugar alcohol added. Initial pH was adjusted to 5.5 with 4 N H3PO4 solution. Fermentation was conducted at 33° C. and pH was not controlled. Samples were taken periodically between 0 and 40 hr. Samples were filtered through 0.22 micron filters, and the filtrates were analyzed by HPLC as described in General Methods for glucose, xylose, xylitol, and ethanol. Samples were diluted with medium (as described in General Methods) and the OD600 was measured to monitor cell growth. Results of growth and glucose utilization are given in FIGS. 20A and 20B, respectively. Results of xylose utilization and ethanol production are given in FIGS. 21A and 21B, respectively. Cultures with sorbitol or galactitol grew much faster and better than the control. Cultures with adonitol also grew better. After 40 hours, the OD600 were 7 to 8, for cultures supplemented with sorbitol or galactitol; the OD600 were about 5, for cultures supplemented with adonitol; while the OD600 were less than 1 for other cultures. […] The presence of sorbitol, galactitol, or adonitol allowed more xylose utilization, without production of xylitol.

ZW658 strain [3] = assay: Flask fermentation of ZW658 on glucose and xylose with various polyols; details: 10 mM polyol; for ethanol production / xylose utilization: mixed sugars; for OD600: after 32 hours, total sugar about 160 g/L, 33° C.
Method: as §1, §2
(§3) Glycerol stock of seed frozen at −80° C. was thawed, then inoculated into sterile culture tubes with mixture of 60 g/L glucose, 20 g/L xylose, 10 g/L yeast extract (YE), 10 g/L KH2PO4, 2 g/L (NH4)2SO4, and 1 g/L MgSO4. Initial pH was adjusted to 5.5 with 4 N KOH. This revival culture was grown statically overnight at 37° C. It was transferred into shake flasks with 75 g/L glucose, 25 g/L xylose, 10 g/L yeast extract (YE), 10 g/L KH2PO4, 2 g/L (NH4)2SO4, and 1 g/L MgSO4. Initial pH was adjusted to 5.5 with 4 N KOH. Growth was monitored by measuring OD600. When the OD reached approximately 5, a certain volume of the seed was withdrawn into a sterile syringe for inoculation.
In five sterilized 125 ml Erlenmeyer culture flasks (Cat. No. 30180-036, VWR International, USA), 10 ml of ZW658 strain seed culture at OD600 of approximately 5 was inoculated into each flask with 100 ml of aqueous solution containing 100 g/L glucose, 80 g/L xylose, 10 g/L yeast extract (YE), 2 g/L KH2PO4, 1 g/L MgSO4.7H2O, and 4 g/L KHCO3, and 10 mM of one of the following polyols: erythritol, sorbitol, mannitol, maltitol, or lactitol. After inoculation, the total sugar concentration was about 160 g/L due to dilution by the seed culture. Initial pH was adjusted to 5.5 with 4 N H3PO4 solution. Mixing speed was set at 150 rpm. Fermentation was conducted at 33° C. and pH was not controlled. Samples were taken periodically. Samples were filtered through 0.22 micron filters, and the filtrates were analyzed by HPLC as described in General Methods for compounds including glucose, xylose, ethanol, xylitol, and acetic acid. Samples were diluted with medium (as described in General Methods) and the OD600 was measured to monitor cell growth. […] Cultures with sorbitol or mannitol grew faster and better. After 32 hours, the OD600 were 13.94 and 13.92, respectively, for cultures supplemented with sorbitol or mannitol; meanwhile, the OD600 were 9.48, 9.02, and 9.24, respectively, for cultures supplemented with erythritol, maltitol, or lactitol. […] The presence of sorbitol or mannitol allowed more xylose utilization, without production of xylitol.

ZW658 strain [4] = assay: Flask fermentation of ZW658 on glucose and xylose with acetate and various polyols; details: 10 mM polyol, 3 g/L acetate; for OD600: after 32 hours, total sugar about 160 g/L
Method: as §1, §2, §3
In five sterilized 125 ml Erlenmeyer culture flasks (Cat. No. 30180-036, VWR International, USA), 10 ml of ZW658 strain seed culture at OD600 of approximately 5 was inoculated into each flask with 100 ml of aqueous solution containing 100 g/L glucose, 80 g/L xylose, 3 g/L acetate, 10 g/L yeast extract (YE), 2 g/L KH2PO4, 1 g/L MgSO4.7H2O, and 4 g/L KHCO3, and 10 mM of the following polyols: erythritol, sorbitol, mannitol, maltitol, or lactitol; or 5 mM sorbitol plus 5 mM maltitol, or 5 mM sorbitol plus 5 mM lactitol. After inoculation, the total sugar concentration was about 160 g/L due to dilution by the seed culture. Initial pH was adjusted to 5.5 with 4 N H3PO4 solution. Mixing speed was set at 150 rpm. Fermentation was conducted at 33° C. and pH was not controlled. Samples were taken periodically. Samples were filtered through 0.22 micron filters, and the filtrates were analyzed by HPLC as described in General Methods for compounds including glucose, xylose, ethanol, and acetate. Samples were diluted with medium (as described in General Methods) and the OD600 was measured to monitor cell growth.

ZW658 strain [5] = assay: 1-liter fermentor, ZW658 on high concentration glucose and xylose with sorbitol or glutamate
Method: as §1, §2, §3
In a sterilized 1-liter fermentor (BIOSTAT® B-DCU system, Sartorius BBI System Inc., Bethlehem, Pa., USA), 50 ml of ZW658 strain seed culture at Optical Density of approximately 5 (measured at 600 nm) was inoculated into 450 ml of aqueous solution containing sugars and medium. The final mixed broth contained 100 g/L glucose, 85.1 g/L xylose, 10 g/L yeast extract (YE), 2 g/L KH2PO4, and 10 mM sorbitol. pH was adjusted to 5.5 with 4 N KOH solution. Mixing speed was set at 150 rpm. Fermentation was conducted at 33° C. and pH 5.5. Samples were taken periodically. Samples were filtered through 0.22 micron filters, and the filtrates were analyzed by HPLC as described in General Methods for compounds including glucose, xylose, ethanol, and acetate. Samples were also diluted with medium (as described in General Methods) and the OD600 was measured to monitor cell growth. […] The by-product xylitol concentration was 0.67 g/L at 29 hr, and increased to 0.95 g/L at 64 hr.
In a sterilized 1-liter fermentor (BIOSTAT® B-DCU system, Sartorius BBI System Inc., Bethlehem, Pa., USA), 50 ml of ZW658 strain seed culture at OD600 of approximately 5 was inoculated into 450 ml of aqueous solution containing sugars and medium. The final mixed broth contained 98.0 g/L glucose, 81.2 g/L xylose, 10 g/L yeast extract (YE), 2 g/L KH2PO4, and 10 mM potassium glutamate. pH was adjusted to 5.5 with 4 N KOH solution. Mixing speed was set at 150 rpm. Fermentation was conducted at 33° C. and pH 5.5. Samples were taken periodically. Samples were filtered through 0.22 micron filters, and the filtrates were analyzed by HPLC as described in General Methods for compounds including glucose, xylose, xylitol, ethanol, and acetic acid. Samples were also diluted with medium (as described in General Methods) and the OD600 was measured to monitor cell growth. […] However, xylose was not well-utilized, cell growth and ethanol production were reduced as compared to that in the presence of sorbitol (Example 4), and xylitol production increased.

[6] = after 63.75 hours, 10 mM potassium glutamate
[7] = in the presence of glutamate, mixed sugars

For `OC[C@@H](O)[C@@H](O)[C@H](O)[C@@H](O)CO` [D-sorbitol], the ethanol production (ZW658 strain [1]) was “ethanol production was also better”, the xylose utilization (ZW658 strain [1]) was “More xylose was utilized” and the OD600 (ZW658 strain [1]) was 6.2.

With `OC[C@@H](O)[C@H](O)[C@@H](O)[C@@H](O)CO` [L-sorbitol] the ethanol production (ZW658 strain [1]) was “ethanol production was also better”, the xylose utilization (ZW658 strain [1]) was “More xylose was utilized” and the OD600 (ZW658 strain [1]) was 5.2.

For `OC[C@@H](O)[C@@H](O)[C@@H](O)CO` [adonitol], the OD600 (ZW658 strain [2]; after 40 hours, 10 mM sorbitol, 10 mM or 50 mM other sugar alcohols, 92 g/L glucose, 82 g/L xylose) was “about 5”, the ethanol production (ZW658 strain [2]) was “ethanol production was also better” and the xylose utilization (ZW658 strain [2]) was “More xylose was utilized”.

For `OC[C@@H](O)[C@@H](O)CO` [erythritol], the ethanol production (ZW658 strain [3]) was “do not increase ethanol production”, the xylose utilization (ZW658 strain [3]) was “nor do they increase xylose utilization” and the OD600 (ZW658 strain [3]) was 9.48. For the same compound, the OD600 (ZW658 strain [4]) was 5.20.

In the case of `OC[C@@H](O)[C@H](O)[C@H](O)[C@@H](O)CO` [galactitol], the ethanol production (ZW658 strain [2]) was “ethanol production was also better” and the xylose utilization (ZW658 strain [2]) was “More xylose was utilized”.

`N[C@@H](CCC(=O)[O-])C(=O)[O-].[K+].[K+]` [glutamate, potassium glutamate, reference compound] was tested, and the “effect on lag period” value (ZW658 strain [5]; 10 mM potassium glutamate) was “reduced the lag period”, the “time at which glucose concentration reached 0” value (ZW658 strain [5]; 10 mM potassium glutamate) was 24 h and the “OD600 cells grew to” value (ZW658 strain [5]; [6]) was 6.9. It also gave a by-product xylitol concentration (ZW658 strain [5]; [6]) of 4.38 g/L, an ethanol concentration (ZW658 strain [5]; [6]) of 72.3 g/L and a xylose concentration (ZW658 strain [5]; after 63.75 hours, 98.0 g/L glucose, 81.2 g/L xylose, 10 mM potassium glutamate) of 21.2 g/L. The glucose concentration (ZW658 strain [5]; after 63.75 hours, 98.0 g/L glucose, 81.2 g/L xylose, 10 mM potassium glutamate, 33° C., pH 5.5) was 0 g/L, the “effect on ethanol production” value (ZW658 strain [5]; [7]) was “ethanol production is not improved” and the “effect on xylitol production” value (ZW658 strain [5]; [7]) was “xylitol production is not reduced”. For the same compound, the “effect on xylose utilization” value (ZW658 strain [5]; [7]) was “xylose utilization is not enhanced”.

With `OC[C@@H](O)[C@@H](O[C@@H]1O[C@H](CO)[C@H](O)[C@H](O)[C@H]1O)[C@H](O)[C@@H](O)CO` [lactitol] the ethanol production (ZW658 strain [3]) was “do not increase ethanol production”, the xylose utilization (ZW658 strain [3]) was “nor do they increase xylose utilization” and the OD600 (ZW658 strain [3]) was 9.24. The OD600 (ZW658 strain [4]) was 5.30.

With `OC[C@@H](O)[C@@H](O[C@H]1O[C@H](CO)[C@@H](O)[C@H](O)[C@H]1O)[C@H](O)[C@@H](O)CO` [maltitol] the ethanol production (ZW658 strain [3]) was “do not increase ethanol production”, the xylose utilization (ZW658 strain [3]) was “nor do they increase xylose utilization” and the OD600 (ZW658 strain [3]) was 9.02. For the same compound, the OD600 (ZW658 strain [4]) was 5.20.

For `OC[C@@H](O)[C@@H](O)[C@H](O)[C@H](O)CO` [mannitol], the ethanol production (ZW658 strain [3]) was “ethanol production was also better”, the xylose utilization (ZW658 strain [3]) was “More xylose was utilized” and the OD600 (ZW658 strain [3]) was 13.92. The ethanol production (ZW658 strain [4]) was “ethanol production was also better”, the xylose utilization (ZW658 strain [4]) was “More xylose was utilized” and the OD600 (ZW658 strain [4]) was 7.40.
